Reference: PMC8262591 (Brain research bulletin, 2020)
“And” between values parts separate entries of the source, which are not always exact repeats. Identical values can stand only once. Counter-ions that a name gives are not always drawn.

Legend:
[1] = tested on: Adult male Wistar rats; assay: Tail-flick latency; type: in vivo, rat; settings: for decrease in potency when moving from i.p. to p.o. route of administration: analgesia, i.p. vs p.o.; for peak analgesia: tail-flick
[2] = tested on: brain CYP2D; settings: seven-day subcutaneous nicotine; ref McMillan and Tyndale, 2015; cited from earlier work
[3] = tested on: brain CYP2D; settings: seven-day subcutaneous nicotine; ref McMillan and Tyndale, 2015; cited from earlier work; remark: listed apart in the source
[4] = tested on: brain CYP2D; settings: 24 hr i.c.v. propranolol pretreatment, pilot study
[5] = tested on: brain CYP2D; settings: 24 hr i.c.v. propranolol pretreatment, pilot microdialysis study, tramadol p.o.
[6] = oral tramadol; ref Nobilis et al., 2002, Ong et al., 2005; cited from earlier work
[7] = tested on: Adult male Wistar rats; settings: tramadol 40 mg/kg i.p.; ref Wang et al., 2015; cited from earlier work

COc1ccc2c3c1O[C@H]1[C@@H](O)C=C[C@H]4[C@@H](C2)N(C)CC[C@@]341 [codeine]
decrease in potency when moving from i.p. to p.o. route of administration [1]: 2.5 – 10 fold

CN1CC[C@]23c4c5ccc(O)c4O[C@H]2[C@@H](O)C=C[C@H]3[C@H]1C5 [morphine]
decrease in potency when moving from i.p. to p.o. route of administration [1]: 2.5 – 10 fold

CN1CCC[C@H]1c1cccnc1 [nicotine]
increase in codeine-induced antinociception, hot-plate test AUC [2]: 2.5 fold
increase in codeine-induced antinociception, tail-flick reflex AUC0–30 min [3]: 1.6 fold

CC(C)NCC(O)COc1cccc2ccccc12 (stereo not drawn) [propranolol, Propranolol hydrochloride]
effect on analgesia after tramadol p.o. [4]: increase in analgesia
effect on brain levels of tramadol, ODSMT and NDSMT [5]: increased

COc1cccc(C2(O)CCCCC2CN(C)C)c1 (stereo not drawn) [tramadol, Tramadol hydrochloride]
fraction of a tramadol dose undergoing first-pass metabolism [6]: 30%
overall analgesic response, AUC 0–60 min (published) [7]: 1740 %MPE*min
peak analgesia (published) [7]: approximately 52 % MPE
time to peak analgesia (published) [7]: 45 min post-injection
decrease in potency when moving from i.p. to p.o. route of administration [1]: 2.5 – 10 fold and 2.5 fold
overall analgesic response, AUC 0–60 min ([1]; tramadol 40 mg/kg i.p.): 2840 %MPE*min
time to peak analgesia ([1]; tramadol 40 mg/kg i.p.): 50 min post-injection
peak analgesia ([1]; tramadol 40 mg/kg i.p.): 65 % MPE
peak analgesia ([1]; tramadol 100 mg/kg p.o.): 74 % MPE
